# Results published in PubChem BioAssay AID2748 (The Scripps Research Institute Molecular Screening Center, 2010).
# Target: Heat shock protein HSP 90-alpha (Homo sapiens) (UniProt P07900)
# Assay: HSP90 inhibitors, concentration-response – biochemical, luminescence, late-stage follow-up (AID 2748)
# Conditions: Hsp90 biochemical assay, luminescence read-out
row,SMILES,IC50 [µM]
1,Cc1cc(NO)nc(-c2ccc(Br)cc2)n1,0.871
2,Cc1c(-c2nc(-c3ccc(C(F)(F)F)cc3)no2)n(C)oc1=O,1.6
3,COc1cc(C=NNc2ccc(Cl)c(C(=O)O)c2)ccc1OC(=O)c1ccc(F)cc1,1.82
4,CC(=O)Nc1ccccc1OCC(=O)c1cc(C)n(Cc2cccs2)c1C,0.1
5,CCOC(=O)c1csc(NC(=O)c2cc3ccccc3o2)n1,0.878
6,Cc1c(-c2nc(-c3ccc(C(C)(C)C)cc3)no2)n(C)oc1=O,< 0.003
7,COc1ccccc1NC(=O)c1coc(=O)c(Br)c1,0.457
8,CCc1ccc(OCc2ccc(C(=O)OC)o2)cc1,1.03
9,CCOC(=O)C1=C(c2ccc(OC)cc2)C(=O)c2ccccc2C1=O,0.308
